We go through twelve compounds from ChEMBL document CHEMBL1139555, “Discovery of potent and selective phenylalanine based dipeptidyl peptidase IV inhibitors” (Bioorg Med Chem Lett, 2005).

The structures appear in SMILES notation.

A short description of data set [1]: Plasma half-life of compound was determined in rat. In kind it is ADME, cell-free.
The target of data set [2] is Dipeptidyl peptidase 4 (Homo sapiens, UniProt P27487).
Data set [3] concerns the target Dipeptidyl peptidase 8 (Homo sapiens, UniProt Q6V1X1).
For data set [4], the target named is Dipeptidyl peptidase 9 (Homo sapiens, UniProt Q86TI2).
Data set [5] addresses Dipeptidyl peptidase 2 (Homo sapiens, UniProt Q9UHL4).
The nature of data set [6]: Oral bioavailability in rat. It counts as ADME, organism-based. The following applies: in vivo.
Data set [7] in a line: Plasma cearance of compound was determined in rat. It counts as ADME, organism-based. The following applies: read-out: Clp.
For data set [8], the target named is Voltage-gated inwardly rectifying potassium channel KCNH2 (Homo sapiens, UniProt Q12809).
Chain of Voltage-gated inwardly rectifying potassium channel KCNH2 (Q12809 whole entry): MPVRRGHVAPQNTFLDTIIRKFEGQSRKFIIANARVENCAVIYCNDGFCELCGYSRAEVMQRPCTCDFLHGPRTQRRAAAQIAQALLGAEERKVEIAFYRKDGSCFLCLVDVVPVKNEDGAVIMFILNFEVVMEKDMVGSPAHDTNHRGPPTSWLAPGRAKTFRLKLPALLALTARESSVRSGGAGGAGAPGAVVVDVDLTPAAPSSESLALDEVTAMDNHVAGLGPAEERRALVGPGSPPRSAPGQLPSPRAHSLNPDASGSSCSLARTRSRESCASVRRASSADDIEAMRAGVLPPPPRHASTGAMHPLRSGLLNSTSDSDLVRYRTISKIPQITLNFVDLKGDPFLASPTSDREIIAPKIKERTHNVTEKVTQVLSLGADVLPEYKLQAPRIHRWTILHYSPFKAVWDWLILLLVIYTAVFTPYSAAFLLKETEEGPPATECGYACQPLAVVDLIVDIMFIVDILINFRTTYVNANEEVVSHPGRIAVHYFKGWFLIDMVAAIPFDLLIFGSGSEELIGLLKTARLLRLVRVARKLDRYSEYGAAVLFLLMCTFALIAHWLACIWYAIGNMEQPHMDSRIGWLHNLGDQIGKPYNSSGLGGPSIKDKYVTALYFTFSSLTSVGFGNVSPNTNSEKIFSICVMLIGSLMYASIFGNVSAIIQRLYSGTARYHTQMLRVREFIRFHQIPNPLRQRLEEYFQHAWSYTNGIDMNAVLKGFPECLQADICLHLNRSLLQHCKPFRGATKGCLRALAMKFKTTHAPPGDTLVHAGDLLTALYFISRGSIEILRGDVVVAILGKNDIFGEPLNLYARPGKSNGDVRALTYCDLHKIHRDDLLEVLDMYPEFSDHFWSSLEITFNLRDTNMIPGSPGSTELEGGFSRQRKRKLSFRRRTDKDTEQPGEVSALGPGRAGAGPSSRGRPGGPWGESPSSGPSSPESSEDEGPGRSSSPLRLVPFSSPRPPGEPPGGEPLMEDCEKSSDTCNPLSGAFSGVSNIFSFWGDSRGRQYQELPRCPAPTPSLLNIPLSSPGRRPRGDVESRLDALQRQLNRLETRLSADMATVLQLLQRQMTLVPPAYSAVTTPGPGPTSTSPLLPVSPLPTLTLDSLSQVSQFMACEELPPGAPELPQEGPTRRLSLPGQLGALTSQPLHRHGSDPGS

Chain of Dipeptidyl peptidase 4 (P27487 whole entry): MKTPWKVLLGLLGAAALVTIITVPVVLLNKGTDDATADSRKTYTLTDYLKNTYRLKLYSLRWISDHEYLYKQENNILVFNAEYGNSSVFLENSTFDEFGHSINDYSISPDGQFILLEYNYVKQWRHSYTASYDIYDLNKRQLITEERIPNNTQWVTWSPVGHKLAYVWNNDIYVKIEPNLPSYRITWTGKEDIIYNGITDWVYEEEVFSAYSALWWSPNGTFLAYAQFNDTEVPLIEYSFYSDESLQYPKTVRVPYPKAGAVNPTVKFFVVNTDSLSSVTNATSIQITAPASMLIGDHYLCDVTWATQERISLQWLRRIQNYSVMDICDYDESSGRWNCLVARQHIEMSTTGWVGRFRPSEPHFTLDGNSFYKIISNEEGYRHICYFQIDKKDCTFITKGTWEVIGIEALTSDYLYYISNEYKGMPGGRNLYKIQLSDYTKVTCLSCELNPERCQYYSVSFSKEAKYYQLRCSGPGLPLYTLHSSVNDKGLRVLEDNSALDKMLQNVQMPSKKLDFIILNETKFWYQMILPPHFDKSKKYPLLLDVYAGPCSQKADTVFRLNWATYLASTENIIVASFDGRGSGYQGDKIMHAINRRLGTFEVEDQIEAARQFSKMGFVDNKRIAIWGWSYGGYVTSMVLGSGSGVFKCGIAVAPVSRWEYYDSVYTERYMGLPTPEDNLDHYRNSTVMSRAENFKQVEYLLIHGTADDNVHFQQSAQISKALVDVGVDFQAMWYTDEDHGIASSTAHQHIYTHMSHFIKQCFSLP
Chain of Dipeptidyl peptidase 8 (Q6V1X1 whole entry): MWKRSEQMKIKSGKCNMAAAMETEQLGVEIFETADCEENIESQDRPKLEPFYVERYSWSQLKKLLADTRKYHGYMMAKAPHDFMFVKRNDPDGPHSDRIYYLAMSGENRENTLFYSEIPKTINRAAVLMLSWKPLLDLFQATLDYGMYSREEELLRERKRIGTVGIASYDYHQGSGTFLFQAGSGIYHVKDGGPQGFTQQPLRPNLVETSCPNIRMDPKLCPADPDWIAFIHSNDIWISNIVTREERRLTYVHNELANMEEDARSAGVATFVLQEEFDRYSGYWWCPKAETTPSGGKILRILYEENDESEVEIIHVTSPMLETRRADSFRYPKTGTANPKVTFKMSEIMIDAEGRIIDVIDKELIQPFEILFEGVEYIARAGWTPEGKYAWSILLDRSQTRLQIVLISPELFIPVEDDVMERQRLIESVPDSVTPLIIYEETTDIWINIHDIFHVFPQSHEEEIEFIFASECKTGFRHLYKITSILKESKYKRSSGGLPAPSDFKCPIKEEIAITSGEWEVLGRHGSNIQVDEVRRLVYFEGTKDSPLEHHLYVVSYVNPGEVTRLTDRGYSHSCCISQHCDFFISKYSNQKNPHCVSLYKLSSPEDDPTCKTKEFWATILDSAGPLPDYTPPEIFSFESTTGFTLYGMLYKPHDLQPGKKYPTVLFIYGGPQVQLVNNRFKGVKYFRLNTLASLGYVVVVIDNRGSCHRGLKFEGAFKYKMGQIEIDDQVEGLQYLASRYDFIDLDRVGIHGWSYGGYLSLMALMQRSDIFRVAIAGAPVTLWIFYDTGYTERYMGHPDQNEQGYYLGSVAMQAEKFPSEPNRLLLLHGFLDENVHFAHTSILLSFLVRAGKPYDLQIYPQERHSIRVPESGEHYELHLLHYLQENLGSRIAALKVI
Chain of Dipeptidyl peptidase 9 (Q86TI2 whole entry): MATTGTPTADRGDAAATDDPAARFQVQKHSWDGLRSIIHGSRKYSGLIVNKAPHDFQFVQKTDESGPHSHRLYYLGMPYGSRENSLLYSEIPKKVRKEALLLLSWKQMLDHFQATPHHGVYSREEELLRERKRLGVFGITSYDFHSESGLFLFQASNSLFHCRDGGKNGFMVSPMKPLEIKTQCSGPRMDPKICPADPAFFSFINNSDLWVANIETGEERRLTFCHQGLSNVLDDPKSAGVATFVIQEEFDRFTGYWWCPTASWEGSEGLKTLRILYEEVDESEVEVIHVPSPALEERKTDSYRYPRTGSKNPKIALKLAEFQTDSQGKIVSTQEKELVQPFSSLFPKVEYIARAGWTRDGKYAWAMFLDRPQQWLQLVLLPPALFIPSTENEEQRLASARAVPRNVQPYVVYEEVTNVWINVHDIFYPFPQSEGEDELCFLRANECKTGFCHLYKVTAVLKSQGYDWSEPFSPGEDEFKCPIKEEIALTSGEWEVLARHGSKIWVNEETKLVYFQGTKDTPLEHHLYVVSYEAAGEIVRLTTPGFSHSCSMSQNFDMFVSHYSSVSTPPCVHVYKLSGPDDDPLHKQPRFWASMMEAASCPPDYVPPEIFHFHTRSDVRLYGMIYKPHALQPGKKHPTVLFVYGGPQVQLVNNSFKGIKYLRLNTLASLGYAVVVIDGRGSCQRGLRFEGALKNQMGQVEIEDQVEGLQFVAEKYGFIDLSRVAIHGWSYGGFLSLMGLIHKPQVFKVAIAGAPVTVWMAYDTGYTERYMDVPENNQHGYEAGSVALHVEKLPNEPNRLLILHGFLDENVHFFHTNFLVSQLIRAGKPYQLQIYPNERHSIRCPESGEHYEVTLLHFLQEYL

The half-life is how long it takes for the measured level to halve. `C[C@@H](c1ccc(-c2ccc(F)cc2)cc1)[C@H](N)C(=O)N1CC[C@H](F)C1.O=C(O)C(F)(F)F`: in data set [1], the half-life was 132 min.
By IC50 is commonly meant the concentration needed to halve the response being measured. Low values mean greater potency, high ones weaker potency. For the compound `C[C@@H](c1ccc(-c2cccc(-c3nc[nH]n3)c2)cc1)[C@H](N)C(=O)N1CC[C@H](F)C1`, the half-maximal inhibitory concentration (IC50) is 98 nM in data set [2], above 100000 nM in data set [3], above 100000 nM in data set [4] and 350 nM in data set [5].
`C[C@@H](c1ccc(-c2ccc(C(=O)O)cc2)cc1)[C@H](N)C(=O)N1CC[C@H](F)C1`: the IC50 in data set [2] is 370 nM; in data set [3], above 100000 nM; in data set [4], above 100000 nM; in data set [5], 8600 nM.
For `C[C@@H](c1ccc(-c2ccc(NS(C)(=O)=O)cc2)cc1)[C@H](N)C(=O)N1CC[C@H](F)C1`, the IC50 in data set [2] was 710 nM; in data set [3], above 100000 nM; in data set [4], above 100000 nM; in data set [5], 1800 nM.
`C[C@@H](c1ccc(-c2ccc(S(C)(=O)=O)cc2)cc1)[C@H](N)C(=O)N1CC[C@H](F)C1`: the half-inhibitory concentration (IC50) in data set [2] is 420 nM; in data set [3], above 100000 nM; in data set [4] it was above 100000 nM; in data set [5] it was 1200 nM.
As usually defined, the bioavailability is the share of a dose that reaches the circulation, judged against a reference dose that is usually intravenous. A higher bioavailability goes with much systemic uptake. The compound `C[C@@H](c1ccc(-c2cccc(-c3nn[nH]n3)c2)cc1)[C@H](N)C(=O)N1CC[C@H](F)C1.O=C(O)C(F)(F)F` showed a half-life in data set [1] of 18 min. For the same compound, the IC50 was 6 nM in data set [2], above 100000 nM in data set [3] and 2900 nM in data set [5]. In data set [6], this compound gave a bioavailability of 3.5%. Also, the clearance in data set [7] amounted to 132 mL/min/kg.
Turning to `C[C@@H](c1ccc(-c2cccc(-c3nnco3)c2)cc1)[C@H](N)C(=O)N1CC[C@H](F)C1`, the IC50 in data set [2] is 69 nM; in data set [3], above 100000 nM; in data set [4], above 100000 nM; in data set [5] it was 960 nM.
Consider `C[C@@H](c1ccc(-c2cccc(C(=O)O)c2)cc1)[C@H](N)C(=O)N1CC[C@H](F)C1.O=C(O)C(F)(F)F`, for which the half-life in data set [1] is 24 min. Moreover, the IC50 in data set [2] is 56 nM; in data set [3], above 100000 nM; in data set [4] it was above 100000 nM; in data set [5], 9200 nM. In data set [6], this compound showed a bioavailability of 2.3%. The clearance in data set [7] was found to be 50.8 mL/min/kg.
`CCOC(=O)c1ccc(-c2ccc([C@H](C)[C@H](N)C(=O)N3CC[C@H](F)C3)cc2)cc1`: the concentration for half-maximal inhibition (IC50) in data set [2] is 440 nM; in data set [3], above 100000 nM; in data set [4], above 100000 nM; in data set [5], 120 nM.
With `C[C@@H](c1ccc(-c2ccc(F)cc2F)cc1)[C@H](N)C(=O)N1CC[C@H](F)C1`, the IC50 in data set [2] was 37 nM; in data set [3] it was above 100000 nM; in data set [4] it was above 100000 nM; in data set [5], 2500 nM.
On to `C[C@@H](c1ccc(-c2cccc(S(N)(=O)=O)c2)cc1)[C@H](N)C(=O)N1CC[C@H](F)C1`, for which the IC50 in data set [2] is 140 nM; in data set [3], above 100000 nM; in data set [4], above 100000 nM; in data set [5] it was 3600 nM.
On to `C[C@@H](c1ccc(-c2cccc(-c3noc(O)n3)c2)cc1)[C@H](N)C(=O)N1CC[C@H](F)C1.O=C(O)C(F)(F)F`, for which the half-inhibitory concentration (IC50) in data set [8] is 28000 nM; in data set [2], 3 nM; in data set [3] it was above 100000 nM; in data set [4], above 100000 nM; in data set [5], 1100 nM. The same compound had a half-life in data set [1] of 66 min. The same compound yielded a bioavailability in data set [6] of 4.2%. Besides, the clearance in data set [7] was found to be 23.9 mL/min/kg.
